Experimental data taken from patent US8853418B2, “Cyclopentylpyrazoles as N-type calcium channel blockers” (Janssen Pharmaceutica NV, priority 2012, dated 2014).
Read-outs that look alike come from different tables or passages of the source.

How the values were obtained:
N-type calcium channel = N-type calcium channel (Homo sapiens, UniProt Q00975); assay: Automated Electrophysiology Assay (QPatch-HT whole-cell patch clamp; low- and high-frequency stimulation); format: cell-based
[1] = biological target: N-type calcium channel (α1B (Cav2.2), β3 and α2δ subunits) (Homo sapiens, UniProt Q00975); assay: Functional Assay: Antagonism of N-Type Calcium Channel (FDSS calcium mobilization, KCl depolarization); format: cell-based; details: for IC50: HEK cell line, 50 mM KCl depolarization, six-point concentration-response, read-out: FDSS IC50
Summary of the method: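 HEK cells stably co-expressing α1B (Cav2.2), β3 and α2δ were loaded with calcium dye, then given compound with fluorescence recorded for 5 min before 50 mM KCl depolarisation and 3 min more reading. IC50 came from six-point curves of maximal fluorescence, normalised to KCl maximum and buffer minimum.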

[2] = 0.1 μM, high-frequency stimulation (15th pulse), read-out: QPatch at High Frequency % Inhibition
[3] = 1 μM, high-frequency stimulation (15th pulse), read-out: QPatch at High Frequency % Inhibition
[4] = low frequency, 0.1 μM, read-out: QPatch at Low Frequency % Inhibition
[5] = low frequency, 1 μM, read-out: QPatch at Low Frequency % Inhibition
[6] = high-frequency stimulation (15th pulse), read-out: QPatch at High Frequency % Inhibition
[7] = low frequency, read-out: QPatch at Low Frequency % Inhibition

Sequence of N-type calcium channel (α1B (Cav2.2), β3 and α2δ subunits) (Q00975 whole entry): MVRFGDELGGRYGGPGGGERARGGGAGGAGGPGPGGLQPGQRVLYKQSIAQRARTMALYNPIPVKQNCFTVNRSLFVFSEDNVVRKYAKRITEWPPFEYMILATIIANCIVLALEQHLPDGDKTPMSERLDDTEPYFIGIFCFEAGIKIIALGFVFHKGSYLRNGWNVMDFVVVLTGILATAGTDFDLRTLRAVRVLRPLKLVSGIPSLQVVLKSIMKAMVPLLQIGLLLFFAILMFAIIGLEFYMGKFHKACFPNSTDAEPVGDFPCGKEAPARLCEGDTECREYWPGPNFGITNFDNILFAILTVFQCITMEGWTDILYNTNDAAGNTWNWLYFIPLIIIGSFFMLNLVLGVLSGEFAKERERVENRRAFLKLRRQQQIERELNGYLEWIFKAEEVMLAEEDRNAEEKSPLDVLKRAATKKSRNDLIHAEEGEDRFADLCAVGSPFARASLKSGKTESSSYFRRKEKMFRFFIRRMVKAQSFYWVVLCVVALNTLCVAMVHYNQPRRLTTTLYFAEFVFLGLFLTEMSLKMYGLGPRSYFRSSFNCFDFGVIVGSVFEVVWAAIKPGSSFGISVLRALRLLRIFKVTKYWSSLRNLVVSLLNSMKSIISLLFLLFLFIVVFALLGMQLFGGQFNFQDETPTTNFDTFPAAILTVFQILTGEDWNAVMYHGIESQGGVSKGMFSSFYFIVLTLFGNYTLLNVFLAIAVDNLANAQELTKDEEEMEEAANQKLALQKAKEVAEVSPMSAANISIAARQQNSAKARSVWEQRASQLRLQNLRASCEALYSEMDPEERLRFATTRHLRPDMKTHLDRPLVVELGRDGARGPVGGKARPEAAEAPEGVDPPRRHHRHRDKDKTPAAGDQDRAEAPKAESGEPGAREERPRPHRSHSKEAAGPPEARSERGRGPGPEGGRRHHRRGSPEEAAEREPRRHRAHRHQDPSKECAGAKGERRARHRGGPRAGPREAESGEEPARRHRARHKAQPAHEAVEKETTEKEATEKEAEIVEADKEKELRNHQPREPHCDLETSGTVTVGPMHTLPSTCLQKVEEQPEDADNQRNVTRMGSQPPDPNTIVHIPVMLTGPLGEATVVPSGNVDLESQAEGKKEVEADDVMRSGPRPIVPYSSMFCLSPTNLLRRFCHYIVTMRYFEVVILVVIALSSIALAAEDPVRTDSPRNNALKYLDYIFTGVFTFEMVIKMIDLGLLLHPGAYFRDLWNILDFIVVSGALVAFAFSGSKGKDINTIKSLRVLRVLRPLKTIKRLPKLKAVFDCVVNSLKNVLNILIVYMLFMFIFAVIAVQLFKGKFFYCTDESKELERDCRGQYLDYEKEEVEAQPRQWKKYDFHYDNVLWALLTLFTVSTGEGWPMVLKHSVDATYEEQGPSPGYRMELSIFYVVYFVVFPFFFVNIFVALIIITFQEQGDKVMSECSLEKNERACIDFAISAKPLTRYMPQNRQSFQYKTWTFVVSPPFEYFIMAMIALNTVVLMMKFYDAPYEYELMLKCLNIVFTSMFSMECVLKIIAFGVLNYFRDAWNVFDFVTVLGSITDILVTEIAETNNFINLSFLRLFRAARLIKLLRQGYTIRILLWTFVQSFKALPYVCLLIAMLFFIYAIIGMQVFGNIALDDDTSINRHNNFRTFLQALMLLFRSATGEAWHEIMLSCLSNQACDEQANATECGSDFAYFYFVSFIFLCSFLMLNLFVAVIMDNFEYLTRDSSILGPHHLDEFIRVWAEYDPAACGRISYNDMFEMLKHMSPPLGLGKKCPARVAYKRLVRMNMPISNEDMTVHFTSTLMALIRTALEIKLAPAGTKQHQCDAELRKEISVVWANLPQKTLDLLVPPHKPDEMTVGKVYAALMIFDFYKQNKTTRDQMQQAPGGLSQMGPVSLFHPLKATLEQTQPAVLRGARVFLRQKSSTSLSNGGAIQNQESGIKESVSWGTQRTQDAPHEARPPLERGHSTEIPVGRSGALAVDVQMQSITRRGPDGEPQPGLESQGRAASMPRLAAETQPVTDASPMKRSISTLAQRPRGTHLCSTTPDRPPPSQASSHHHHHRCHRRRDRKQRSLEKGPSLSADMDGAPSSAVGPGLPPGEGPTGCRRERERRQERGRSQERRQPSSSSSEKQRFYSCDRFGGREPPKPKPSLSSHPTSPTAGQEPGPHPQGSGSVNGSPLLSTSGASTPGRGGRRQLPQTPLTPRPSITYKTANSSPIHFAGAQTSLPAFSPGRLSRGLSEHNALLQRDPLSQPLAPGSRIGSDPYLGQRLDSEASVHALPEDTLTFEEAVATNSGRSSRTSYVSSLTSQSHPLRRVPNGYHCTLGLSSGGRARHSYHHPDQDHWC
Sequence of N-type calcium channel (α1B (Cav2.2), β3 and α2δ subunits) (P54284 whole entry partner): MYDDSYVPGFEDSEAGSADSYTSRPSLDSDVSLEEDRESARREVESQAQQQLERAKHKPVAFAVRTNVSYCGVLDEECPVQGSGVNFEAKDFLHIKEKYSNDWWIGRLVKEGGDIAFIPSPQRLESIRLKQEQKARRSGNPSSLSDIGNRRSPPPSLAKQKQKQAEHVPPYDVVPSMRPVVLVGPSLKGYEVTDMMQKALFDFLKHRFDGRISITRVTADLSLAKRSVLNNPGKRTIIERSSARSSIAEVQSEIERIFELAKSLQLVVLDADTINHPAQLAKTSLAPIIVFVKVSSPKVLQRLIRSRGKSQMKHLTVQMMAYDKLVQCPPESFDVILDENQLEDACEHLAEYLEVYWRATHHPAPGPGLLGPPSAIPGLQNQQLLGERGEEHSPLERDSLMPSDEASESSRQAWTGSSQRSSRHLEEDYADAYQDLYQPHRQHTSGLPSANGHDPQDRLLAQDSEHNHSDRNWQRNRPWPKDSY
Sequence of N-type calcium channel (α1B (Cav2.2), β3 and α2δ subunits) (P54289 25-946 partner limits assumed): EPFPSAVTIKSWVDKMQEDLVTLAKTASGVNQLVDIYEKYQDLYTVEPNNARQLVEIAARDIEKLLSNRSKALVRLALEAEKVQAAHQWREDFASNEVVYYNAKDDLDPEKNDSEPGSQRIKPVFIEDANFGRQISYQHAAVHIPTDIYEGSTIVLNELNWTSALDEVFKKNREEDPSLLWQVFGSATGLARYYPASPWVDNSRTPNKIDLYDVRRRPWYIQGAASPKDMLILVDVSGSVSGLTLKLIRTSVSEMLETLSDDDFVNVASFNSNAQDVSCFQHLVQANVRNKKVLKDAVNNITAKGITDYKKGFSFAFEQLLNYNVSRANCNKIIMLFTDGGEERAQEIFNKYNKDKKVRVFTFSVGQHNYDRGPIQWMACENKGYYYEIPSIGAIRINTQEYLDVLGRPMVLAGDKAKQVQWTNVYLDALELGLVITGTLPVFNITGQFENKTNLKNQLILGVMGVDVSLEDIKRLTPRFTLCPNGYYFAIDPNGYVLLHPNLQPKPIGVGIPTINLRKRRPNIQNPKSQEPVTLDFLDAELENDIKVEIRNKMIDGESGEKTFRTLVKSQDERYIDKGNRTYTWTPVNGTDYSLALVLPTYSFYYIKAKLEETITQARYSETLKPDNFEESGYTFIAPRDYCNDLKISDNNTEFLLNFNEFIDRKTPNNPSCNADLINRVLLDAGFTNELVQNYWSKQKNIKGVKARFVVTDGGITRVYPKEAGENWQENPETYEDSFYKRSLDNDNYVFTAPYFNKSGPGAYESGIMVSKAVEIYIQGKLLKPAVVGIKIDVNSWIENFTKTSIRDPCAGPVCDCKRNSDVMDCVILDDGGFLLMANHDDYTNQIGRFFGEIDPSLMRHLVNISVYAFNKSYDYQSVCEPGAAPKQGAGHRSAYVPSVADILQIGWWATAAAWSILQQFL
Sequence of N-type calcium channel (α1B (Cav2.2), β3 and α2δ subunits) (P54289 947-1103 partner limits assumed): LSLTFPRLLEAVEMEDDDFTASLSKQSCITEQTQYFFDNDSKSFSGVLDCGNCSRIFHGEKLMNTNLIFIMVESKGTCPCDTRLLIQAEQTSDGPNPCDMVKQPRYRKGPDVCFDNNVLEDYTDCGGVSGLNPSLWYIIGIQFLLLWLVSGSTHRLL
Sequence of N-type calcium channel (Q00975 whole entry): as the sequence (Q00975 whole entry) above
Sequence of N-type calcium channel (P54284 whole entry partner): as the sequence (P54284 whole entry partner) above
Sequence of N-type calcium channel (P54289 25-946 partner limits assumed): as the sequence (P54289 25-946 partner limits assumed) above
Sequence of N-type calcium channel (P54289 947-1103 partner limits assumed): as the sequence (P54289 947-1103 partner limits assumed) above

SMILES | inhibition at 0.1 µM (N-type calcium channel; [2]) [%] | inhibition at 1 µM (N-type calcium channel; [3]) [%] | inhibition at 0.1 µM (N-type calcium channel; [4]) [%] | inhibition at 1 µM (N-type calcium channel; [5]) [%] | inhibition at 0.33 µM ([1]; 0.33 μM) [%] | IC50 [1] [nM] | other results
COc1ccccc1-n1nc2c(c1-c1ccc(Cl)cc1)CC1(C2)O[C@@H](C)[C@@H](C)O1 (stereo partly drawn) [Compound 102, (4′R,5′S)-3-(4-chlorophenyl)-2-(2-methoxyphenyl)-4′,5′-dimethyl-2,6-dihydro-4H-spiro[cyclopenta[c]pyrazole-5,2′-[1,3]dioxolane]] | – | 58 | – | 42 | 97 | 7.6 | –
O=C1Cc2nn(-c3ccccc3OC(F)(F)F)c(-c3ccc(Cl)cc3)c2C1 [Compound 27, 3-(4-chlorophenyl)-2-[2-(trifluoromethoxy)phenyl]-2,6-dihydrocyclopenta[c]pyrazol-5(4H)-one] | -14 | – | -16 | – | – | 11 | –
COc1ccccc1-n1nc2c(c1-c1ccc(Cl)cc1)CC1(C2)O[C@H]2CCC[C@H]2O1 (stereo partly drawn) [Compound 114, (3aR,6aS)-3′-(4-chlorophenyl)-2′-(2-methoxyphenyl)-2′,4,5,6,6′,6a-hexahydro-3aH,4′H-spiro[cyclopenta[d][1,3]dioxole-2,5′-cyclopenta[c]pyrazole]] | – | – | – | – | 90 | 5 | QPatch at High Frequency % Inhibition (N-type calcium channel; 0.1 μM, high-frequency stimulation (15th pulse)): 65%; QPatch at Low Frequency % Inhibition (N-type calcium channel; low frequency, 0.1 μM): 44%
COc1ccccc1-n1nc2c(c1-c1ccc(N(C)C)nc1)CC1(C2)OC(C)(C)C(C)(C)O1 [Compound 110, 5-[2-(2-methoxyphenyl)-4′,4′,5′,5′-tetramethyl-2,6-dihydro-4H-spiro[cyclopenta[c]pyrazole-5,2′-[1,3]dioxolan]-3-yl]-N,N-dimethylpyridin-2-amine] | 1 | – | -9 | – | 90 | 2.8 | –
COc1ccc(-c2c3c(nn2-c2ccccc2OC)CC2(C3)OCC(C)(C)CO2)cn1 [Compound 96, 2-(2-methoxyphenyl)-3-(6-methoxypyridin-3-yl)-5′,5′-dimethyl-2,6-dihydro-4H-spiro[cyclopenta[c]pyrazole-5,2′-[1,3]dioxane]] | 20 | – | -1 | – | 81 | 34 | –
COc1ccccc1-n1nc2c(c1-c1ccc(Cl)cc1)CC1(C2)O[C@H](C)C[C@@H](C)O1 (stereo partly drawn) [Compound 100, (4′R,6′R)-3-(4-chlorophenyl)-2-(2-methoxyphenyl)-4′,6′-dimethyl-2,6-dihydro-4H-spiro[cyclopenta[c]pyrazole-5,2′-[1,3]dioxane]] | 69 | 83 | 46 | 72 | 101 | 4.4 | inhibition at 0.01 µM (N-type calcium channel; [6]): 21%; inhibition at 0.01 µM (N-type calcium channel; [7]): 10%
COc1ccccc1-n1nc2c(c1-c1ccc(Cl)cc1)CC1(C2)O[C@@H](C)[C@@H](C)O1 (stereo partly drawn) [Compound 103, (4′R,5′S)-3-(4-chlorophenyl)-2-(2-methoxyphenyl)-4′,5′-dimethyl-2,6-dihydro-4H-spiro[cyclopenta[c]pyrazole-5,2′-[1,3]dioxolane]] | 46 | – | 12 | – | – | 4.8 | QPatch at High Frequency % Inhibition (N-type calcium channel; 1 μM, high-frequency stimulation (15th pulse)): 69%; inhibition at 0.01 µM (N-type calcium channel; [7]): -21%; QPatch at Low Frequency % Inhibition (N-type calcium channel; low frequency, 1 μM): 36%; % Inhibition (%) at 0.33 μM ([1]; 0.33 μM): 101%
COc1ccccc1-n1nc2c(c1-c1ccc(C#N)cc1)CC1(C2)OCC(C)(C)CO1 [Compound 91, 4-[2-(2-methoxyphenyl)-5′,5′-dimethyl-2,6-dihydro-4H-spiro[cyclopenta[c]pyrazole-5,2′-[1,3]dioxan]-3-yl]benzonitrile] | 39 | 61 | 28 | 40 | 89 | 19 | inhibition at 0.01 µM (N-type calcium channel; [6]): 20%; inhibition at 0.01 µM (N-type calcium channel; [7]): 19%
CCc1ncn([C@@H]2Cc3nn(-c4ccccc4OC)c(-c4ccc(C#N)cc4)c3C2)c1CC [Compound 139, 4-[(5S)-5-(4,5-diethyl-1H-imidazol-1-yl)-2-(2-methoxyphenyl)-2,4,5,6-tetrahydrocyclopenta[c]pyrazol-3-yl]benzonitrile] | – | 66 | – | 72 | 87 | 37 | –
CCOc1ccccc1-n1nc2c(c1-c1ccc(Cl)cc1)C[C@@H](N(C)S(=O)(=O)N(C)C)C2 [Compound 46, N-[(5R)-3-(4-chlorophenyl)-2-(2-ethoxyphenyl)-2,4,5,6-tetrahydrocyclopenta[c]pyrazol-5-yl]-N,N′,N′-trimethylsulfamide] | 50 | – | 21 | – | 99 | 2.6 | –
CCOc1ccccc1-n1nc2c(c1-c1ccc(Cl)cc1)CC(n1ccnn1)C2 (stereo not drawn) [Compound 42, 3-(4-chlorophenyl)-2-(2-ethoxyphenyl)-5-(1H-1,2,3-triazol-1-yl)-2,4,5,6-tetrahydrocyclopenta[c]pyrazole] | – | 87 | – | 86 | 91 | 19 | –
COc1ccccc1-n1nc2c(c1-c1ccc(Cl)cc1)CC1(C2)O[C@@H](C)[C@H](C)O1 [Compound 99, (4′S,5′S)-3-(4-chlorophenyl)-2-(2-methoxyphenyl)-4′,5′-dimethyl-2,6-dihydro-4H-spiro[cyclopenta[c]pyrazole-5,2′-[1,3]dioxolane]] | 34 | – | -4 | – | 93 | 13 | –

The next lines start with results.

inhibition at 0.1 µM (N-type calcium channel; [2]) [%] | inhibition at 1 µM (N-type calcium channel; [3]) [%] | inhibition at 0.1 µM (N-type calcium channel; [4]) [%] | inhibition at 1 µM (N-type calcium channel; [5]) [%] | inhibition at 0.33 µM ([1]; 0.33 μM) [%] | IC50 [1] [nM] | SMILES | other results
22 | 43 | 7 | 6 | 89 | 31 | COc1ccccc1-n1nc2c(c1-c1ccc(Cl)cc1)C[C@H](OC(=O)C1CCC1)C2 [Compound 80, (5S)-3-(4-chlorophenyl)-2-(2-methoxyphenyl)-2,4,5,6-tetrahydrocyclopenta[c]pyrazol-5-yl cyclobutanecarboxylate] | –
– | 43 | – | 19 | – | 130 | CCc1ccccc1-n1nc2c(c1-c1ccc(Cl)cc1)CC(CNC(=O)OC(C)(C)C)C2 (stereo not drawn) [Compound 16, tert-butyl{[3-(4-chlorophenyl)-2-(2-ethylphenyl)-2,4,5,6-tetrahydrocyclopenta[c]pyrazol-5-yl]methyl}carbamate] | –
27 | – | 15 | – | 78 | 93 | COc1ccccc1-n1nc2c(c1-c1ccc(Cl)cc1)C[C@H](OC(=O)C1CCCCC1)C2 [Compound 78, (5S)-3-(4-chlorophenyl)-2-(2-methoxyphenyl)-2,4,5,6-tetrahydrocyclopenta[c]pyrazol-5-yl cyclohexanecarboxylate] | –
29 | 79 | 12 | 57 | 95 | 11 | CCC(CC)C(=O)O[C@H]1Cc2nn(-c3ccccc3OC)c(-c3ccc(Cl)cc3)c2C1 [Compound 55, (5R)-3-(4-chlorophenyl)-2-(2-methoxyphenyl)-2,4,5,6-tetrahydrocyclopenta[c]pyrazol-5-yl 2-ethylbutanoate] | inhibition at 0.03 µM (N-type calcium channel; [6]): 19%; inhibition at 0.03 µM (N-type calcium channel; [7]): 15%
– | 67 | – | 42 | – | 38 | COc1ccccc1-n1nc2c(c1-c1ccc(Cl)cc1)CC(CCNC(=O)OC(C)(C)C)C2 (stereo not drawn) [Compound 13, tert-butyl{2-[3-(4-chlorophenyl)-2-(2-methoxyphenyl)-2,4,5,6-tetrahydrocyclopenta[c]pyrazol-5-yl]ethyl}carbamate] | –
46 | – | 44 | – | – | 6.4 | COc1ccccc1-n1nc2c(c1-c1ccc(Cl)cc1)CC(N(C)S(C)(=O)=O)C2 (stereo not drawn) [Compound 37, N-[3-(4-chlorophenyl)-2-(2-methoxyphenyl)-2,4,5,6-tetrahydrocyclopenta[c]pyrazol-5-yl]-N-methylmethanesulfonamide] | –
21 | – | 10 | – | 89 | 22 | COc1ccccc1-n1nc2c(c1-c1ccc(Cl)cc1)C[C@H](OC1CCCC1)C2 [Compound 90, (5S)-3-(4-chlorophenyl)-5-(cyclopentyloxy)-2-(2-methoxyphenyl)-2,4,5,6-tetrahydrocyclopenta[c]pyrazole] | –
20 | 40 | -1 | 10 | 81 | 46 | COc1ccccc1-n1nc2c(c1-c1ccc(C#N)cc1)CC(CC(C)C)C2 (stereo not drawn) [Compound 105, 4-[2-(2-methoxyphenyl)-5-(2-methylpropyl)-2,4,5,6-tetrahydrocyclopenta[c]pyrazol-3-yl]benzonitrile] | –
19 | – | 15 | – | 92 | 4 | CCOc1ccccc1-n1nc2c(c1-c1ccc(Cl)cc1)CC(NS(=O)(=O)N(C)C)C2 (stereo not drawn) [Compound 47, N′-[3-(4-chlorophenyl)-2-(2-ethoxyphenyl)-2,4,5,6-tetrahydrocyclopenta[c]pyrazol-5-yl]-N,N-dimethylsulfamide] | –
